# Results taken from paper PMC8225959, “Clickable Radiocomplexes With Trivalent Radiometals for Cancer Theranostics: In vitro and in vivo Studies” (Frontiers in Medicine, 2021).
# How the values were obtained:
# [1] = Stability of the [90Y]Y-DOTA-Tz preparation (HPLC, radiolysis); format: physicochemical
# Description: The radiolabelling with ^90Y was performed following the same procedure previously optimized for ^111In, using a buffer of 0.1 M ammonium acetate at pH 7 and heating the mixture at 80°C for 15 min. The DOTA-Tz chelator was added to a final concentration of 400–500 μM to yield [^90Y]Y-DOTA-Tz with specific activities up to 3.3 MBq/nmol and radiochemical yields above 90% (Supplementary Figure 4A). The radiocomplex [^90Y]Y-DOTA-Tz was synthesized with ~130 MBq of [^90Y]YCl3 and obtained in very high specific activity, after separation from the non-labeled DOTA-Tz chelator. The radiocomplex was recovered into phosphate buffer at pH 8 to neutralize the residual TFA from the HPLC mobile phase before its use in future biological studies. […] In order to stabilize the [^90Y]Y-DOTA-Tz preparation, a suitable ratio between the volume of phosphate buffer solution at pH 8 to neutralize the TFA from the HPLC purification and ascorbic acid as a radiolytic stabilizer had to be optimized. In initial experiments, the use of ascorbic acid as a buffer in the radiolabelling procedure led to the degradation of the tetrazine moiety. Similar effect was seen when the ascorbic acid solution (50 mg/mL) was added to the solution after labeling. […]
# PC3 tumor = test: Cerenkov luminescence imaging of PC3 tumor-bearing mice pretargeted with TCO-PEG4-AR then [90Y]Y-DOTA-Tz; format: in vivo; conditions: 1 nmol TCO-PEG4-AR, radiocomplex after 4 h
# Description: The Cerenkov Luminescence Imaging of the prostate cancer PC3 tumor-bearing mice was carried out at different time points (15 min, 1 and 2 h) after intravenous injection of [^90Y]Y-DOTA-Tz. […] Thereafter, the CLI imaging of the PC3 tumor-bearing mice was carried out at different time points (15 min, 1 h). The images were obtained using PhotonIMAGER™ (BioSpace Lab).
# PC3 xenografts [2] = test: Ex vivo biodistribution of [90Y]Y-DOTA-Tz in mice bearing PC3 xenografts; conditions: PC3 xenograft mice
# From the text: Currently, we are investigating the application of click chemistry using biomolecules that target prostate cancer. Therefore, since a non-specific tumor uptake might interfere with the specificity of the pre-targeting approach, we have performed in vivo studies of [^90Y]Y-DOTA-Tz in mice bearing PC3 xenografts to assess the possible non-specific uptake of the clickable radiocomplex in the tumor and in the tumor microenvironment. […] This type of optical imaging offers a high spatial resolution, and despite a limited penetration depth allows to image ^90Y, which is not easily feasible using PET or SPECT imaging ([32]). […] At the selected time points the majority of the compound was retrieved in the urine, with 88 and 96% of the I.D. excreted 1 and 2 h post-injection, respectively. page 9: from whole animal body. Blood samples were taken by cardiac puncture at sacrifice. […] The animals were kept under […] volume of approximate 390 ± 190 mm3. […] […] carried out on groups of 8 mice (n = 4). […] The animals were weighed and dissected.
# [3] = In vitro stability of [111In]In-radiocomplexes in cell culture media, human serum and PBS at 37 °C (HPLC); format: in vitro ADME
# Description: (§1) Given the limited effect of the pegylated linker on the plasmatic half-life, we focused our successive in vitro stability studies and lipophilicity measurements on the two non-pegylated derivatives [^111In]In-DOTA-Tz and [^111In]In-DOTAGA-Tz. The lipophilicity was evaluated by determination of their partition coefficient log Po/w using the shake-flask method. […] In HS the stability was very good up to 2 h of incubation, but after 4 h of incubation, the degradation started to be quite important with 50 and 30% of the compound degraded for [^111In]In-DOTA-Tz and [^111In]In-DOTAGA-Tz, respectively. […] Taken together, excellent stability of the two [^111In]In-radiocomplexes was observed both in CCM and HS at 37°C for incubation times up to 2 h.
# [111In]In-Radiocomplexes: In vitro and in vivo stability
# radiolabelled compound dissolved in different media. For the evaluation of the stability in PBS, Cell
# times the volume of the desired medium.
# The radiocomplexes incubated in Human
# The urine samples were centrifuged
# during six days by ITLC analysis.
# [4] = Biodistribution of [111In]In-radiocomplexes in healthy mice; format: in vivo
# Description: We performed a biodistribution study of the four [^111In]In-radiocomplexes in healthy mice to determine the clearance rate from systemic blood circulation and the tissue/organ distribution over time. […] The urinary tract was identified as the main excretory pathway since the highest % I.D./g values were found in the kidneys for all the radiocomplexes, associated to rapid radioactivity excretion both at 15 min and 1 h p.i. […] page 9: from whole animal body. Blood samples were taken by cardiac puncture at sacrifice. […] The animals were kept under […] volume of approximate 390 ± 190 mm3. […] […] carried out on groups of 8 mice (n = 4). […] The animals were weighed and dissected.
# PC3 xenografts [5] = test: In vivo click (pre-targeting) biodistribution of [111In]In-DOTA-Tz in PC3-xenografts bearing mice pretargeted with TCO-PEG4-AR; set-up: Biodistribution: Blood: dose or concentration left out as unconfirmed; conditions: 1 h p.i.
# Description: from whole animal body. Blood samples were taken by cardiac puncture at sacrifice. Tissue samples
# Biodistribution in PC3 bearing mice
# Membrane Matrix (BD Sciences) under anaesthesia with 2% isoflurane. The animals were kept under
# volume of approximate 390 ± 190 mm3. Animals were allocated into treatment groups using a complete
# carried out on groups of 8 mice (n = 4).
# At appropriate time points (15 min,
# Immediately after injection,
# DOTA-Tz (0.1mL, 50 – 75 µCi µCi).
# assumed to be due to total excretion. The animals were weighed and dissected. Then, tissues of interest
# radioactivity and weighted.
# [6] = Lipophilicity, octanol-water partition coefficient by shake-flask method; format: physicochemical; conditions: 1-octanol / PBS pH 7.4
# Description: as §1, with “h. […]” for “h.”
# Lipophilicity Determination
# After phase separation, aliquots
# [7] = In vivo stability: HPLC analysis of urine of injected mice; conditions: mouse urine, 1 h p.i.
# [8] = 1 h p.i., listed as [^90Y]Y-DOTA-Tz
# [9] = 2 h p.i., listed as [^90Y]Y-DOTA-Tz
# [10] = In Vivo Click reaction: PC3 xenograft mice pretargeted with TCO-PEG4-AR (4 h prior administration, 1 nM)
# [11] = In Vivo Click reaction: PC3 xenograft mice pretargeted with TCO-PEG4-AR (4 h prior administration, 1 nM), listed as [^111In]In-DOTA-Tz
# [12] = in vivo click chemistry, pretargeted with TCO-PEG4-AR
smiles,measurement,setting,value
O=C([O-])CN1CCN(CC(=O)[O-])CCN(CC(=O)NCc2ccc(-c3nncnn3)cc2)CCN(CC(=O)[O-])CC1.[90Y+3] [[90Y]Y-DOTA-Tz],in vitro stability of the preparation,"[1]; 3 μL ascorbic acid (50 mg/mL) and 147 μL phosphate buffer pH 8, up to 20 h after the radiolabelling",excellent in vitro stability
same,stability of the preparation,"[1]; recovered into phosphate buffer pH 8, no stabilizer, after 2 h at room temperature",high degradation
same,Cerenkov imaging: tumor uptake,PC3 tumor; images at 15 min p.i.,some tumor uptake
same,Cerenkov imaging: activity localization,PC3 tumor; images at 1 h after the injection,majority of the activity localized in the kidneys
same,Biodistribution: Blood,PC3 xenografts [2]; 1 h p.i.,1.59 ± 0.62 % I.D./g
same,Biodistribution: Bone,PC3 xenografts [2]; 1 h p.i.,1.04 ± 0.25 % I.D./g
same,Biodistribution: Intestine,PC3 xenografts [2]; 1 h p.i.,0.41 ± 0.2 % I.D./g
same,Biodistribution: Kidneys,PC3 xenografts [2]; 1 h p.i.,3.65 ± 0.49 % I.D./g
same,Biodistribution: Liver,PC3 xenografts [2]; 1 h p.i.,0.76 ± 0.07 % I.D./g
same,Biodistribution: Lung,PC3 xenografts [2]; 1 h p.i.,1.24 ± 0.32 % I.D./g
same,Biodistribution: Muscle,PC3 xenografts [2]; 1 h p.i.,0.5 ± 0.2 % I.D./g
same,Biodistribution: Pancreas,PC3 xenografts [2]; 1 h p.i.,0.7 ± 0.32 % I.D./g
same,Biodistribution: Salivary Gland,PC3 xenografts [2]; 1 h p.i.,0.68 ± 0.12 % I.D./g
same,Biodistribution: Spleen,PC3 xenografts [2]; 1 h p.i.,1 ± 0.27 % I.D./g
same,Biodistribution: Stomach,PC3 xenografts [2]; 1 h p.i.,0.65 ± 0.33 % I.D./g
same,Biodistribution: Tumour,PC3 xenografts [2]; 1 h p.i.,1.0 ± 0.4 % I.D./g
same,Biodistribution: Blood,PC3 xenografts [2]; [8],1.59 % I.D./g
same,Biodistribution: Kidneys,PC3 xenografts [2]; [8],3.6 % I.D./g
same,Biodistribution: Blood,PC3 xenografts [2]; 2 h p.i.,0.22 ± 0.01 % I.D./g
same,Biodistribution: Bone,PC3 xenografts [2]; 2 h p.i.,0.54 ± 0.04 % I.D./g
same,Biodistribution: Intestine,PC3 xenografts [2]; 2 h p.i.,0.17 ± 0.05 % I.D./g
same,Biodistribution: Kidneys,PC3 xenografts [2]; 2 h p.i.,2.54 ± 0.71 % I.D./g
same,Biodistribution: Liver,PC3 xenografts [2]; 2 h p.i.,0.49 ± 0.15 % I.D./g
same,Biodistribution: Lung,PC3 xenografts [2]; 2 h p.i.,0.31 ± 0.04 % I.D./g
same,Biodistribution: Muscle,PC3 xenografts [2]; 2 h p.i.,0.15 ± 0.01 % I.D./g
same,Biodistribution: Pancreas,PC3 xenografts [2]; 2 h p.i.,0.27 ± 0.12 % I.D./g
same,Biodistribution: Salivary Gland,PC3 xenografts [2]; 2 h p.i.,0.17 ± 0.02 % I.D./g
same,Biodistribution: Spleen,PC3 xenografts [2]; 2 h p.i.,0.33 ± 0.16 % I.D./g
same,Biodistribution: Stomach,PC3 xenografts [2]; 2 h p.i.,0.23 ± 0.08 % I.D./g
same,Biodistribution: Tumour,PC3 xenografts [2]; 2 h p.i.,0.37 ± 0.17 % I.D./g
same,Biodistribution: Blood,PC3 xenografts [2]; [9],0.22 % I.D./g
same,Biodistribution: Kidneys,PC3 xenografts [2]; [9],2.5 % I.D./g
same,Biodistribution: Tumour,PC3 xenografts [2]; [9],0.37 % I.D./g
O=C([O-])CN1CCN(CC(=O)[O-])CCN(CC(=O)NCc2ccc(-c3nncnn3)cc2)CCN(CC(=O)[O-])CC1.[111In+3] [[111In]In-DOTA-Tz],stability in PBS,"[3]; PBS, 24 h at 37°C",> 85%
same,level of degradation in CCM,"[3]; cell culture media, 37°C, after 24 h",70%
same,stability in CCM,"[3]; cell culture media, 37°C, first 4 h of incubation",very good stability
same,stability in HS,"[3]; human serum, 37°C, 24 h of incubation",almost completely degraded
same,compound degraded in HS,"[3]; human serum, 37°C, after 4 h of incubation",50%
same,stability in HS,"[3]; human serum, 37°C, up to 2 h of incubation",very good
same,Biodistribution: Blood,[4]; 15 min p.i.,2.5 ± 1.4 % I.D./g
same,Biodistribution: Bone,[4]; 15 min p.i.,1.0 ± 0.7 % I.D./g
same,Biodistribution: Heart,[4]; 15 min p.i.,0.8 ± 0.5 % I.D./g
same,Biodistribution: Intestine,[4]; 15 min p.i.,0.3 ± 0.2 % I.D./g
same,Biodistribution: Kidney,[4]; 15 min p.i.,5.2 ± 3.3 % I.D./g
same,Biodistribution: Liver,[4]; 15 min p.i.,2.3 ± 0.8 % I.D./g
same,Biodistribution: Lung,[4]; 15 min p.i.,1.8 ± 0.9 % I.D./g
same,Biodistribution: Muscle,[4]; 15 min p.i.,1.1 ± 0.9 % I.D./g
same,Biodistribution: Pancreas,[4]; 15 min p.i.,0.4 ± 0.2 % I.D./g
same,Biodistribution: Spleen,[4]; 15 min p.i.,0.8 ± 0.2 % I.D./g
same,Biodistribution: Stomach,[4]; 15 min p.i.,0.3 ± 0.2 % I.D./g
same,Excretion,[4]; 15 min p.i.,58.3 ± 25.3 % I.D.
same,Biodistribution: Blood,[4]; 1 h p.i.,0.32 ± 0.07 % I.D./g
same,Biodistribution: Bone,[4]; 1 h p.i.,0.12 ± 0.03 % I.D./g
same,Biodistribution: Heart,[4]; 1 h p.i.,0.11 ± 0.02 % I.D./g
same,Biodistribution: Intestine,[4]; 1 h p.i.,0.05 ± 0.01 % I.D./g
same,Biodistribution: Kidney,[4]; 1 h p.i.,1.6 ± 0.3 % I.D./g
same,Biodistribution: Liver,[4]; 1 h p.i.,0.29 ± 0.09 % I.D./g
same,Biodistribution: Lung,[4]; 1 h p.i.,0.29 ± 0.03 % I.D./g
same,Biodistribution: Muscle,[4]; 1 h p.i.,0.08 ± 0.01 % I.D./g
same,Biodistribution: Pancreas,[4]; 1 h p.i.,0.06 ± 0.01 % I.D./g
same,Biodistribution: Spleen,[4]; 1 h p.i.,0.09 ± 0.01 % I.D./g
same,Biodistribution: Stomach,[4]; 1 h p.i.,0.09 ± 0.05 % I.D./g
same,Excretion,[4]; 1 h p.i.,91.8 ± 1.0 % I.D.
same,Excretion,"[4]; 1 h p.i., listed as [^111In]In-DOTA-Tz",above 90 % I.D.
same,Biodistribution: Blood,PC3 xenografts [5]; In Vivo Click reaction: PC3 xenograft mice pretargeted with TCO-PEG4-AR (4 h prior administration),0.28 ± 0.09 % I.D./g
same,Biodistribution: Bone,PC3 xenografts [5]; [10],0.21 ± 0.09 % I.D./g
same,Biodistribution: Heart,PC3 xenografts [5]; [10],0.12 ± 0.04 % I.D./g
same,Biodistribution: Intestine,PC3 xenografts [5]; [10],0.12 ± 0.04 % I.D./g
same,Biodistribution: Kidney,PC3 xenografts [5]; [10],1.5 ± 0.3 % I.D./g
same,Biodistribution: Liver,PC3 xenografts [5]; [10],0.3 ± 0.1 % I.D./g
same,Biodistribution: Lung,PC3 xenografts [5]; [10],0.26 ± 0.06 % I.D./g
same,Biodistribution: Muscle,PC3 xenografts [5]; [10],0.15 ± 0.11 % I.D./g
same,Biodistribution: Spleen,PC3 xenografts [5]; [10],0.11 ± 0.04 % I.D./g
same,Biodistribution: Stomach,PC3 xenografts [5]; [10],0.09 ± 0.06 % I.D./g
same,Biodistribution: Tumour,PC3 xenografts [5]; [10],0.78 ± 0.54 % I.D./g
same,Biodistribution: Kidney,PC3 xenografts [5]; [11],1.5 % I.D./g
same,Biodistribution: Tumour,PC3 xenografts [5]; [11],0.78 % I.D./g
same,tumor/blood ratio,PC3 xenografts [5]; [12],2.8
same,tumor/muscle ratio,PC3 xenografts [5]; [12],5.2
same,log Po/w,[6],−1.60 ± 0.13
same,in vivo stability / metabolization (urine HPLC),[7],eliminated without undergoing any metabolization or degradation
